# Ends that are not written are not given here.
# Columns and labels:
# [1] = solubility to 50 mM HEPES buffer solution (pH 8.0); format: physicochemical; settings: room temperature
# Protocol: In this Example, Ce113, Ce149, Ce172, Ce173 and Ce174 developed in the aforementioned Examples were each dissolved in 50 mM HEPES buffer solution (pH 8.0) and the degrees of solubility of them to 50 mM HEPES buffer solution (pH 8.0) were computationally obtained.
# Ce113, Ce149, Ce172, Ce173 and Ce174 having the aforementioned amino acid sequences were chemically synthesized and each dissolved in a 50 mM HEPES buffer solution (pH 8.0). To describe more specifically, the peptides chemically synthesized were each added to the 50 mM HEPES buffer solution (pH 8.0) of 250 μL and stirred by pipetting using a micropipette a sufficient number of times and allowed to stand still at room temperature. When undissolved residue was not present, the peptide was further added and the same operation was repeated. When undissolved residue was present, the sample was allowed to stand still for 10 minutes, stirred by pipetting using a micropipette a sufficient number of times and allowed to stand still at room temperature. The operation of this step was repeated further twice and then concentration was measured by NanoPhotometer NP80 manufactured by IMPLEN to evaluate the degrees of solubility to the 50 mM HEPES buffer solution (pH 8.0).
# [2] = solubility to ultra-pure water; format: physicochemical; settings: room temperature
# Protocol: In this Example, Ce4, Ce9, Ce41 and Ce59 developed in the aforementioned Examples were each dissolved in ultra-pure water and the degrees of solubility of them to ultra-pure water were computationally obtained.
# Ce4, Ce9, Ce41 and Ce59 having the aforementioned amino acid sequences were chemically synthesized and each dissolved in ultra-pure water. To describe more specifically, the peptides chemically synthesized were each added to ultra-pure water of 250 μL and stirred by pipetting using a micropipette a sufficient number of times and allowed to stand still at room temperature. When undissolved residue was not present, the peptide was further added and the same operation was repeated. When undissolved residue was present, the sample was allowed to stand still for 10 minutes, again stirred by pipetting using a micropipette a sufficient number of times and allowed to stand still at room temperature. After the operation in this step was repeated further twice, concentration was measured by NanoPhotometer NP80 manufactured by IMPLEN to evaluate the degrees of solubility to ultra-pure water.
# [3] = target: receptor binding domain (RBD) in wild-type SARS-COV-2 (Severe acute respiratory syndrome coronavirus 2, UniProt P0DTC2); settings: result in words (binding rate and degree of dissociation)
compound,measurement,setting,value
"CC[C@H](C)[C@H](NC(=O)[C@H](CC(C)C)NC(=O)[C@H](CC(=O)O)NC(=O)[C@H](CO)NC(=O)[C@@H](NC(=O)[C@H](CCCNC(=N)N)NC(=O)[C@H](CCSC)NC(=O)[C@H](CO)NC(=O)[C@H](C)NC(=O)[C@H](CCC(=O)O)NC(=O)[C@H](C)NC(=O)[C@H](Cc1c[nH]cn1)NC(=O)CNC(=O)[C@H](CC(C)C)NC(=O)[C@H](CCC(=O)O)NC(=O)[C@H](CC(=O)O)NC(=O)[C@H](CC(C)C)NC(=O)[C@H](CC(C)C)NC(=O)[C@H](CCCNC(=N)N)NC(=O)[C@H](CCSC)NC(=O)[C@@H](NC(=O)[C@H](CCC(=O)O)NC(=O)[C@H](Cc1ccc(O)cc1)NC(=O)[C@@H](NC(=O)[C@H](CCCCN)NC(=O)[C@H](CCC(N)=O)NC(=O)[C@H](CC(C)C)NC(=O)[C@@H](NC(=O)[C@H](Cc1c[nH]c2ccccc12)NC(=O)[C@H](CCC(=O)O)NC(=O)[C@H](CCCCN)NC(=O)[C@@H](N)CC(=O)O)[C@@H](C)CC)[C@@H](C)CC)[C@@H](C)CC)C(C)C)C(=O)N[C@@H](Cc1ccc(O)cc1)C(=O)N[C@@H](CCC(=O)O)C(=O)N[C@@H](Cc1ccccc1)C(=O)N[C@@H](CCSC)C(=O)N[C@@H](CCCCN)C(=O)N[C@@H](CCCCN)C(=O)NCC(=O)O [Ca1, reference compound]",IC50,wild-type SARS-COV-2,107 nM
CC[C@H](C)[C@H](NC(=O)[C@H](CC(C)C)NC(=O)[C@H](CC(=O)O)NC(=O)[C@H](CO)NC(=O)[C@@H](NC(=O)[C@H](CCCNC(=N)N)NC(=O)[C@H](CCSC)NC(=O)[C@H](CO)NC(=O)[C@H](C)NC(=O)[C@H](CCC(=O)O)NC(=O)[C@H](C)NC(=O)[C@H](Cc1c[nH]cn1)NC(=O)CNC(=O)[C@H](CC(C)C)NC(=O)[C@H](CCC(=O)O)NC(=O)[C@H](CC(=O)O)NC(=O)[C@H](CC(C)C)NC(=O)[C@H](CC(C)C)NC(=O)[C@H](CCCNC(=N)N)NC(=O)[C@H](CCSC)NC(=O)[C@@H](NC(=O)[C@H](CCC(=O)O)NC(=O)[C@H](Cc1ccc(O)cc1)NC(=O)[C@@H](NC(=O)[C@H](CCCCN)NC(=O)[C@H](CCC(N)=O)NC(=O)[C@H](CC(C)C)NC(=O)[C@@H](NC(=O)[C@H](Cc1c[nH]c2ccccc12)NC(=O)[C@H](CCC(=O)O)NC(=O)[C@H](CCCCN)NC(=O)[C@@H](N)CC(=O)O)[C@@H](C)CC)[C@@H](C)CC)[C@@H](C)CC)C(C)C)C(=O)N[C@@H](Cc1ccc(O)cc1)C(=O)N[C@@H](CCC(=O)O)C(=O)N[C@@H](Cc1ccccc1)C(=O)N[C@@H](CCSC)C(=O)N[C@@H](CCCCN)C(=O)N[C@@H](CCCCN)C(=O)N[C@@H](CC(=O)O)C(=O)O [Ce1],IC50,wild-type SARS-COV-2,1.5 nM
DKEWILQKIYEIMQRLDEEGHGEASLMVSDLIYEFMKRD [Ce113],solubility thermodynamic at 30 min,[1],2500 µM
DKEWILQKIYEIMRKLDEDGHAEASMRVSDLIYEFMKKD [Ce4],solubility thermodynamic at 30 min,[2],4400 µM
DKEWILQKIYEIMRRLDEEGHAEASMRVSDLIYEFMKKD [Ce9],solubility thermodynamic at 30 min,[2],5200 µM
same,IC50,wild-type SARS-COV-2,0.4 nM
DKEWILQKIYEIMRRLDEEGHGEASLRVSDLIYEFMKKD [Ce41],solubility,[2],6100 µM
same,binding activity to the receptor binding domain (RBD),[3],high binding activity
DKEWILQKIYEIMRRLDEEGHGEASLRVSDLIYEFMKRD [Ce59],solubility thermodynamic at 30 min,[2],6100 µM
DKEWILYKIYEIMQRLDEEGHGEASLMVSDLIYEFMKRD [Ce174],solubility thermodynamic at 30 min,[1],1600 µM
DKEWILYKIYEIMVRLDEEGHGEASLMVSDLIYEFMKRD [Ce149],solubility thermodynamic at 30 min,[1],1300 µM
DKLWILQKIYEIMQRLDEEGHGEASLMVSDLIYEFMKRD [Ce173],solubility thermodynamic at 30 min,[1],1500 µM
DKLWILQKIYEIMVRLDEEGHGEASLMVSDLIYEFMKRD [Ce172],solubility thermodynamic at 30 min,[1],1100 µM
